One data set has as its target T1, GR (Homo sapiens, UniProt P04150).
T1 construct: expressed in transfected cells; host or cells: CHO-K1
T1 sequence (P04150 1-777): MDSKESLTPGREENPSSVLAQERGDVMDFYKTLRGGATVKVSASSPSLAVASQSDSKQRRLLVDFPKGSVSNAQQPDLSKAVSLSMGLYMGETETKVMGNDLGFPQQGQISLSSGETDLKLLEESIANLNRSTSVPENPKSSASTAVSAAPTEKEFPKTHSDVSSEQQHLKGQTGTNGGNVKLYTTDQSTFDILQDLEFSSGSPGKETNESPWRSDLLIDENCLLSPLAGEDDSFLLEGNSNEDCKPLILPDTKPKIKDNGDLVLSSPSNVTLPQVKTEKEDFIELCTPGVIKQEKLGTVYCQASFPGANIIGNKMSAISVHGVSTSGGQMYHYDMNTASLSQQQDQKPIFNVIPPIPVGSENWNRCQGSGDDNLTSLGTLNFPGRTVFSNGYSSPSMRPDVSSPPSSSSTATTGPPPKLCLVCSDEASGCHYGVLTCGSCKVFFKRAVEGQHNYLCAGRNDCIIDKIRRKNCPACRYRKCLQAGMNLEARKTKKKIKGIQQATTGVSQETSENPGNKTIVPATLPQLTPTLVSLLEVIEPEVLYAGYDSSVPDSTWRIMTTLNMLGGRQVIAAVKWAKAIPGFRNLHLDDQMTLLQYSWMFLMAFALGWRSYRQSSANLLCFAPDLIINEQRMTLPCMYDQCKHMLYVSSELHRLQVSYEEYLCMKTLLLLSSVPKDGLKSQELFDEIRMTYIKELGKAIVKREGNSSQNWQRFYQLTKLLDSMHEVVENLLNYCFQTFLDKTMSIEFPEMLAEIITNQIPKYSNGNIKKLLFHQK
Kind of data set: In Vitro GR Luciferase Reporter Assay (antagonist mode, CHO-K1-GR-MMTV-Luc reporter cells). The conditions noted are these: antagonist mode, 10 nM Dexamethasone. In kind it is cell-based. The method, boiled down: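 Antagonist mode: compounds (8 serial 1:5 dilutions) added to GR-MMTV-luciferase CHO-K1 reporter cells co-exposed to 10 nM dexamethasone final, in phenol red-free DMEM plus 10% CSS. After roughly 18-24 h at 37° C, OneGlo luminescence read and IC50 calculated.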

The next data set addresses T2, CYP2C8 (Homo sapiens, UniProt P10632).
T2 construct: Pooled human microsomes were obtained from Sekisui XenoTech, KS; tissue Sekisui XenoTech, KS; host or cells: pooled human liver microsomes
T2 sequence (P10632 1-490): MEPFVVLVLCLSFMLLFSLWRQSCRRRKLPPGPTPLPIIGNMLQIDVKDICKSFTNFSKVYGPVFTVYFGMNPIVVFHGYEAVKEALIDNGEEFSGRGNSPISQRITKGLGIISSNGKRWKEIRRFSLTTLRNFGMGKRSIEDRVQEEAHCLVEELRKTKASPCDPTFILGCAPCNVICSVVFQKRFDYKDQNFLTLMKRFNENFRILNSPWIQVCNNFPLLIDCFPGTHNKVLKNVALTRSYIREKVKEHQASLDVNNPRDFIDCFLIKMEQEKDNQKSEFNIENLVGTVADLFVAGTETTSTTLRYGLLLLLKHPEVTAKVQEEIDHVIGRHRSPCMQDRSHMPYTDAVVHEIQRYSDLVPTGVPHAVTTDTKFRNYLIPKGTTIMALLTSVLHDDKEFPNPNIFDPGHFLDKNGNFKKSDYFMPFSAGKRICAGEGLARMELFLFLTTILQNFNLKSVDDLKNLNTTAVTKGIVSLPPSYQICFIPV
Put plainly: CYP Inhibition Assay (CYP2C8, human liver microsomes, paclitaxel substrate). In kind it is in vitro ADME. The conditions noted are these: pH 7.4; pooled human liver microsomes 0.1 mg/mL, probe substrate paclitaxel. The method, boiled down: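 CYP2C8 activity read as 6α-hydroxypaclitaxel formation by LC-MS/MS, with % inhibition versus vehicle control. Reactions ran 5 min at 37° C, pH 7.4 phosphate buffer, 0.1 mg/mL pooled human liver microsomes, 1 mM NADPH, duplicate wells.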

Where only a bound is given, the exact number is not on record here.

The term IC50 denotes the concentration at which inhibition is half-maximal. Usually inhibition stands for the drop in the measured response relative to a control, in per cent.

As for `Cn1cnc(S(=O)(=O)N(CC2CC2)[C@H]2CCC3=Cc4c(cnn4-c4ccc(F)cc4)C[C@]3(C(=O)c3ncc(C(F)(F)F)s3)C2)c1` [Example 217, N-(cyclopropylmethyl)-N-((4aS,6S)-1-(4-fluorophenyl)-4a-(5-(trifluoromethyl)thiazole-2-carbonyl)-4,4a,5,6,7,8-hexahydro-1H-benzo[f]indazol-6-yl)-1-methyl-1H-imidazole-4-sulfonamide], at GR, the IC50 is not above 100 nM. The same molecule had an inhibition at 5 min at CYP2C8 of 25 to 50%.
On the same counts, the results for `Cn1cc(S(=O)(=O)N(C2CC2)[C@H]2CCC3=Cc4c(cnn4-c4ccc(F)cc4)C[C@]3(C(=O)c3ncc(C(F)(F)F)s3)C2)nn1` [Example 219, N-cyclopropyl-N-((4aS,6S)-1-(4-fluorophenyl)-4a-(5 (trifluoromethyl)thiazole-2-carbonyl)-4,4a,5,6,7,8-hexahydro-1H-benzo[f]indazol-6-yl)-1-methyl-1H-1,2,3-triazole-4-sulfonamide] are not above 100 nM and 25 to 50%.
On the same counts, the results for `CC(C)N([C@H]1CCC2=Cc3c(cnn3-c3ccc(F)cc3)C[C@]2(C(=O)c2cc(C(F)(F)F)ccn2)C1)S(=O)(=O)c1cn(C)cn1` [Example 221, N-((4aS,6S)-1-(4-fluorophenyl)-4a-(4-(trifluoromethyl)picolinoyl)-4,4a,5,6,7,8-hexahydro-1H-benzo[f]indazol-6-yl)-N-isopropyl-1-methyl-1H-imidazole-4-sulfonamide] are not above 100 nM and 50 to 75%.
On to `Cn1cc(S(=O)(=O)N(C2CC2)[C@H]2CCC3=Cc4c(cnn4-c4ccc(F)cc4)C[C@]3(C(=O)c3cc(C(F)(F)F)ccn3)C2)nn1` [Example 222, N-cyclopropyl-N-((4aS,6S)-1-(4-fluorophenyl)-4a-(4-(trifluoromethyl)picolinoyl)-4,4a,5,6,7,8-hexahydro-1H-benzo[f]indazol-6-yl)-1-methyl-1H-1,2,3-triazole-4-sulfonamide], for which, on GR, the IC50 was not above 100 nM. For the same molecule, the inhibition at 5 min on CYP2C8 fell in the range of 50 to 75%.
On GR, `O=C(c1cc(C(F)(F)F)ccn1)[C@]12Cc3cnn(-c4ccc(F)cc4)c3C=C1CC[C@H](N(C1CC1)S(=O)(=O)c1ccc(Cl)nc1)C2` [Example 223, 6-chloro-N-cyclopropyl-N-((4aS,6S)-1-(4-fluorophenyl)-4a-(4-(trifluoromethyl)picolinoyl)-4,4a,5,6,7,8-hexahydro-1H-benzo[f]indazol-6-yl)pyridine-3-sulfonamide] registered an IC50 not above 100 nM. The same molecule came in with an inhibition at 5 min against CYP2C8 of 25 to 50%.
In the case of `Cn1ccc(S(=O)(=O)N(C2CC2)[C@H]2CCC3=Cc4c(cnn4-c4ccc(F)cc4)C[C@]3(C(=O)c3cc(F)ccn3)C2)n1` [Example 224, N-cyclopropyl-N-((4aS,6S)-1-(4-fluorophenyl)-4a-(4-fluoropicolinoyl)-4,4a,5,6,7,8-hexahydro-1H-benzo[f]indazol-6-yl)-1-methyl-1H-pyrazole-3-sulfonamide], the IC50 against GR is not above 100 nM. For the same molecule, the inhibition at 5 min at CYP2C8 was in the range of 25 to 50%.
In the case of `Cn1ccc(S(=O)(=O)N(C2CC2)[C@H]2CCC3=Cc4c(cnn4-c4ccc(F)cc4)C[C@]3(C(=O)c3cc(Cl)ccn3)C2)n1` [Example 225, N-((4aS,6S)-4a-(4-chloropicolinoyl)-1-(4-fluorophenyl)-4,4a,5,6,7,8-hexahydro-1H-benzo[f]indazol-6-yl)-N-cyclopropyl-1-methyl-1H-pyrazole-3-sulfonamide], the IC50 against GR is not above 100 nM. Moreover, the inhibition at 5 min against CYP2C8 was 50 to 75%.
In the case of `Cn1cnc(S(=O)(=O)N(C2CCC2)[C@H]2CCC3=Cc4c(cnn4-c4ccc(F)cc4)C[C@]3(C(=O)c3cc(C(F)(F)F)ccn3)C2)c1` [Example 226, N-cyclobutyl-N-((4aS,6S)-1-(4-fluorophenyl)-4a-(4-(trifluoromethyl)picolinoyl)-4,4a,5,6,7,8-hexahydro-1H-benzo[f]indazol-6-yl)-1-methyl-1H-imidazole-4-sulfonamide], on GR, the IC50 was not above 100 nM. Also, at CYP2C8, the inhibition at 5 min lay within 50 to 75%.
On the same counts, the results for `O=C(c1cc(F)ccn1)[C@]12Cc3cnn(-c4ccc(F)cc4)c3C=C1CC[C@H](N(C1CC1)S(=O)(=O)c1ccc(F)cc1)C2` [Example 228, N-cyclopropyl-4-fluoro-N-((4aS,6S)-1-(4-fluorophenyl)-4a-(4-fluoropicolinoyl)-4,4a,5,6,7,8-hexahydro-1H-benzo[f]indazol-6-yl)benzenesulfonamide] are not above 100 nM and 50 to 75%.
Take `Cn1cc(S(=O)(=O)N(CC2CC2)[C@H]2CCC3=Cc4c(cnn4-c4ccc(F)cc4)C[C@]3(C(=O)c3cc(C(F)(F)F)ccn3)C2)nn1` [Example 229, N-(cyclopropylmethyl)-N-((4aS,6S)-1-(4-fluorophenyl)-4a-(4-(trifluoromethyl)picolinoyl)-4,4a,5,6,7,8-hexahydro-1H-benzo[f]indazol-6-yl)-1-methyl-1H-1,2,3-triazole-4-sulfonamide]: the IC50 at GR is not above 100 nM. The inhibition at 5 min on CYP2C8 fell in the range of 50 to 75%.
On the same counts, the results for `Cn1cc(S(=O)(=O)N(C2CCC2)[C@H]2CCC3=Cc4c(cnn4-c4ccc(F)cc4)C[C@]3(C(=O)c3cc(C(F)(F)F)ccn3)C2)nn1` [Example 230, N-cyclobutyl-N-((4aS,6S)-1-(4-fluorophenyl)-4a-(4-(trifluoromethyl)picolinoyl)-4,4a,5,6,7,8-hexahydro-1H-benzo[f]indazol-6-yl)-1-methyl-1H-1,2,3-triazole-4-sulfonamide] are not above 100 nM and 50 to 75%.
At GR, `CCN([C@H]1CCC2=Cc3c(cnn3-c3ccc(F)cc3)C[C@]2(C(=O)c2cc(C(F)(F)F)ccn2)C1)S(=O)(=O)c1cn(C)nn1` [Example 231, N-ethyl-N-((4aS,6S)-1-(4-fluorophenyl)-4a-(4-(trifluoromethyl)picolinoyl)-4,4a,5,6,7,8-hexahydro-1H-benzo[f]indazol-6-yl)-1-methyl-1H-1,2,3-triazole-4-sulfonamide] displayed an IC50 not above 100 nM. This molecule showed an inhibition at 5 min at CYP2C8 of 25 to 50%.
On the same counts, the results for `CC(C)N([C@H]1CCC2=Cc3c(cnn3-c3ccc(F)cc3)C[C@]2(C(=O)c2ncc(C(F)(F)F)s2)C1)S(=O)(=O)c1cnn(C)n1` [Example 233, N-((4aS,6S)-1-(4-fluorophenyl)-4a-(5-(trifluoromethyl)thiazole-2-carbonyl)-4,4a,5,6,7,8-hexahydro-1H-benzo[f]indazol-6-yl)-N-isopropyl-2-methyl-2H-1,2,3-triazole-4-sulfonamide] are not above 100 nM and 75 to 90%.
On the same counts, the results for `CC(C)N([C@H]1CCC2=Cc3c(cnn3-c3ccc(F)cc3)C[C@]2(C(=O)c2cc(C(F)(F)F)ccn2)C1)S(=O)(=O)c1cnn(C)n1` [Example 234, N-((4aS,6S)-1-(4-fluorophenyl)-4a-(4-(trifluoromethyl)picolinoyl)-4,4a,5,6,7,8-hexahydro-1H-benzo[f]indazol-6-yl)-N-isopropyl-2-methyl-2H-1,2,3-triazole-4-sulfonamide] are not above 100 nM and 75 to 90%.
Regarding `Cn1ncc(S(=O)(=O)N(CC(C)(C)O)[C@H]2CCC3=Cc4c(cnn4-c4ccc(F)cc4)C[C@]3(C(=O)c3ncc(C(F)(F)F)s3)C2)n1` [Example 236, N-((4aS,6S)-1-(4-fluorophenyl)-4a-(5-(trifluoromethyl)thiazole-2-carbonyl)-4,4a,5,6,7,8-hexahydro-1H-benzo[f]indazol-6-yl)-N-(2-hydroxy-2-methylpropyl)-2-methyl-2H-1,2,3-triazole-4-sulfonamide], the IC50 against GR was not above 100 nM. Besides, at CYP2C8, the inhibition at 5 min lay in the range of 50 to 75%.

Values taken from patent publication US20210122730A1, “GLUCOCORTICOID RECEPTOR MODULATORS” (ORIC Pharmaceuticals, Inc., priority 2017, published 2021).
